Data: US7749972B2, “1-substituted-7-(β-D-glycopyranosyloxy)(aza)indole compound and pharmaceutical containing the same” (Kissei Pharmaceutical Co., Ltd., priority 2005, dated 2010)

Tests used:
human SGLT1 = target: T1, human SGLT1 (Homo sapiens, UniProt P13866); experiment: Inhibition of methyl-α-D-glucopyranoside (α-MG) uptake in COS-7 cells expressing human SGLT1; assay type: cell-based; details: COS-7 cells transiently expressing human SGLT1; 1 mM 14C-α-MG uptake, 37° C., 1 hour
T1 construct: expressed in transfected cells; host or cells: COS-7 cells, transient lipofection (Lipofectamine-2000), vector pcDNA3.1(-)
T1 sequence (P13866 1-664): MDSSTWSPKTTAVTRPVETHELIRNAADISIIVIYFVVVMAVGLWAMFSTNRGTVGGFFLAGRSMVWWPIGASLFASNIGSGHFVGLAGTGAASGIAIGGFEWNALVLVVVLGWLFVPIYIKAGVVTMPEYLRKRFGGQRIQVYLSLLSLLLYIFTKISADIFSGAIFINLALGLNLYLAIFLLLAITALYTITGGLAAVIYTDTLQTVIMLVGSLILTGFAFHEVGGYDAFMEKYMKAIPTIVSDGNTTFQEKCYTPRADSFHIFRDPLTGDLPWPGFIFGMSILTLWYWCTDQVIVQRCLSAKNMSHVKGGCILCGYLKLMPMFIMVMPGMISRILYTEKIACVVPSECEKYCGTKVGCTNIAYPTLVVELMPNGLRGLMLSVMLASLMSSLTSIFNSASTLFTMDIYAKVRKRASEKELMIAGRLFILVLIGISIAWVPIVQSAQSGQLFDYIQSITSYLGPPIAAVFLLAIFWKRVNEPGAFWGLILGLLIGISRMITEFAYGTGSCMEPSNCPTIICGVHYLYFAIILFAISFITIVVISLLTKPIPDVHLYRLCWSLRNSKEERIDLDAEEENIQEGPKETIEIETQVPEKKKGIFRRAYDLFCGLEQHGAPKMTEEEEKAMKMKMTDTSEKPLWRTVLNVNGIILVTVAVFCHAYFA
Experimental: (§1) Assay for Inhibitory Effects on Human SGLT Activity
1) Cloning and Construction of the Vector Expressing Human SGLT1
(§2) The cDNA library was prepared for PCR amplification by reverse transcription from total RNA derived from human small intestine (Ori gene) using oligo-dT as a primer. Using this cDNA library as a template, the DNA fragment coding 1 to 2005 bp of human SGLT1 (ACCESSION: M24847), which was reported by Hediger et al., was amplified by PCR method and inserted into the multi-cloning site of pcDNA3.1(−) (Invitrogen). The DNA sequence inserted was perfectly matched to the previously reported sequence.
(§3) 3) Preparation of the Cells Expressing Human SGLT1 or SGLT2 […]
(§4) A mixture of non-labeled (Sigma) and ^14C-labeled α-MG (Amersham Pharmacia Biotech) was added to the uptake buffer (pH 7.4; containing 140 mM sodium chloride, 2 mM potassium chloride, […] calcium chloride, 1 mM magnesium chloride, 10 mM 2-[4-(2-hydroxyethyl)-1-piperazinyl]ethane sulfonic acid and 5 mM tris(hydroxymethyl)aminomethane) at the final concentration of 1 mM. […] Radioactivity was measured by means of micro-scintillation counter TopCount (Packard). One hundred % was set to the difference between the uptake in the control group and the basal uptake, and the uptake of methyl α-D-glucopyranoside at each drug concentration was calculated. […]

human SGLT2 = target: T2, human SGLT2 (Homo sapiens, UniProt P31639); experiment: Inhibition of methyl-α-D-glucopyranoside (α-MG) uptake in COS-7 cells expressing human SGLT2; assay type: cell-based; details: COS-7 cells transiently expressing human SGLT2; 1 mM 14C-α-MG uptake, 37° C., 1 hour
T2 construct: expressed in transfected cells; host or cells: COS-7 cells, transient lipofection (Lipofectamine-2000), vector pcDNA3.1(-)
T2 sequence (P31639 1-672): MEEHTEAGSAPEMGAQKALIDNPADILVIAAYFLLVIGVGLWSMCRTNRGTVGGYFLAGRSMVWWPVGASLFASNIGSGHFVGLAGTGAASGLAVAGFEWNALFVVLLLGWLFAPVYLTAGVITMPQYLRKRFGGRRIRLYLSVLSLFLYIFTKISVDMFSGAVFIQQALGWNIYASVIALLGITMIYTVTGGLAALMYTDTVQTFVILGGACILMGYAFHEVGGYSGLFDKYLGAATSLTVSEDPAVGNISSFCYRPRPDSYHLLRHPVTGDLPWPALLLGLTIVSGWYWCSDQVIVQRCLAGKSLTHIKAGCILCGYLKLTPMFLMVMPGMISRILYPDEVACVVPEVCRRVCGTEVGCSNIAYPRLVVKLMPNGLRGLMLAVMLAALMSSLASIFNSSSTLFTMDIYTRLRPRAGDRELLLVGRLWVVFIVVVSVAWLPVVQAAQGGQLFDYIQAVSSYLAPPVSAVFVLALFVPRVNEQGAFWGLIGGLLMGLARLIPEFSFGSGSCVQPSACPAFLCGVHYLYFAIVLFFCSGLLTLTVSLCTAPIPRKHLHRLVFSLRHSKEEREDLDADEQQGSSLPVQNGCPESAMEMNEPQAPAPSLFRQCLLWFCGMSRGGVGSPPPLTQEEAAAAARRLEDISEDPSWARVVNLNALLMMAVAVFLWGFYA
Experimental: as §1
2) Cloning and Construction of the Vector Expressing Human SGLT2
as §2, with “human kidney” for “human small intestine”, “coding 2” for “coding 1”, “to 2039” for “to 2005”, “human SGLT2” for “human SGLT1”, “(ACCESSION: M95549, M95299),” for “(ACCESSION: M24847),”, “by R. G. Wells” for “by Hediger”
as §3, §4

SMILES	IC50 (human SGLT1) [nM]	IC50 (human SGLT2) [nM]
Cc1ccc(Cn2ccc3cccc(O[C@@H]4O[C@H](CO)[C@@H](O)[C@H](O)[C@H]4O)c32)cc1 [Example 1, 7-(1-β-Glucopyranosyloxy)-1-(4-methylbenzyl)-1H-indole]	235	–
OC[C@H]1O[C@@H](Oc2cccc3ccn(CCc4ccccc4)c23)[C@H](O)[C@@H](O)[C@@H]1O [Example 4]	–	66
OC[C@H]1O[C@@H](Oc2cccc3ccn(CCc4ccc(O)cc4)c23)[C@H](O)[C@@H](O)[C@@H]1O [Example 7, 7-(β-D-Glucopyranosyloxy)-1-[2-(4-hydroxyphenyl)ethyl]-1H-indole]	52	16
